15 molecules from patent US10189854B2, “Substituted pyrimidine compounds” (Grünenthal GmbH, priority 2014, dated 2019) can be followed below.

In this test the target is human PDE4B1 (Homo sapiens (Human), UniProt Q07343). The test can be described thus: TR-FRET assay using the LANCE Ultra cAMP kit to determine the activity of hPDE4B1. The format is biochemical. To be noted: IC50 inhibition of PDE4B, mean. Summed up: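 Recombinant human PDE4B1 (Sf9-expressed, 0.96 U) incubated with compound and 500 nM cAMP in 50 mM Tris-HCl, 50 mM MgCl2, 5 mM DTT, pH 8.5, 30 min at room temperature. Residual cAMP read by TR-FRET (665/620 nm ratio) after IBMX stop. IC50 from ten-concentration curves as % inhibition of control.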

Counter-ions that a name gives are not always drawn.

Sequence of human PDE4B1 (Q07343 whole entry): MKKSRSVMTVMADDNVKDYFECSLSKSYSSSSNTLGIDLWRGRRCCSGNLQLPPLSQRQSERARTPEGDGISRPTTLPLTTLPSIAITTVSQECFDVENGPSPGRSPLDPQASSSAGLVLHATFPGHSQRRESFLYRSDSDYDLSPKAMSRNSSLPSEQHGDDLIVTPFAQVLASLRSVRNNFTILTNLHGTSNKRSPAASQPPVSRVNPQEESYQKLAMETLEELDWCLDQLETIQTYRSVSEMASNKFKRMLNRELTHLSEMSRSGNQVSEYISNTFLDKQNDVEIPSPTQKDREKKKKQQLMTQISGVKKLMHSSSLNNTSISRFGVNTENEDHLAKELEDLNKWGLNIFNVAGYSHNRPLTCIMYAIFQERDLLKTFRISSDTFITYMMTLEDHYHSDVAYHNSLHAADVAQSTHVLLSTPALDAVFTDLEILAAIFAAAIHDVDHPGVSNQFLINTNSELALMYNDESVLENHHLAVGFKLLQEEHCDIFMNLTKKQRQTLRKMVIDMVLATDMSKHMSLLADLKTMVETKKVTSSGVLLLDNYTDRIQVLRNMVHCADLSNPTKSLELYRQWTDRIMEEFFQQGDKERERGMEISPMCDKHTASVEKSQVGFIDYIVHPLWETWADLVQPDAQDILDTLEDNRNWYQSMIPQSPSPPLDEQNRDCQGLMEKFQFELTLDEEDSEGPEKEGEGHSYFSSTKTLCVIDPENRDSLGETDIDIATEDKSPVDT

In the case of `Nc1ccnc(-c2cnc(N3CC4(CC4)c4ccc(C(=O)N5CC6CC5CN6)cc43)nc2)c1` (stereo not drawn) [Compound 263, [1-[5-(4-Amino-pyridin-2-yl)-pyrimidin-2-yl]-spiro[1,2-dihydro-indole-3,1′-cyclopropane]-6-yl]-(2,5-diazabicyclo[2.2.1]heptan-2-yl)-methanone dihydrochloride], the IC50 was below 0.1 µM.
Under `CN(CCO)C(=O)c1ccc2c(c1)N(c1ncc(-c3cc([S+](C)[O-])ccc3F)cn1)CC21CC1` (stereo not drawn) [Compound 287, 1-[5-[2-Fluoro-5-(methylsulfinyl)-phenyl]-pyrimidin-2-yl]-N-(2-hydroxy-ethyl)-N-methyl-spiro[1,2-dihydro-indole-3,1′-cyclopropane]-6-carboxylic acid amide] stands below 0.1 µM; under `CN(CCO)C(=O)c1ccc2c(c1)N(c1ncc(-c3cc(N)ccc3F)cn1)CC21CC1` [Compound 228, 1-[5-(5-Amino-2-fluoro-phenyl)-pyrimidin-2-yl]-N-(2-hydroxy-ethyl)-N-methyl-spiro[1,2-dihydro-indole-3,1′-cyclopropane]-6-carboxylic acid amide], below 0.1 µM; under `CN(CCO)C(=O)c1ccc2c(c1)N(c1ncc(-c3ccc(F)cn3)cn1)CC21CC1` [Compound 232, 1-[5-(5-Fluoro-pyridin-2-yl)-pyrimidin-2-yl]-N-(2-hydroxy-ethyl)-N-methyl-spiro[1,2-dihydro-indole-3,1′-cyclopropane]-6-carboxylic acid amide], below 0.1 µM.
Molecule `CN(CCO)C(=O)c1ccc2c(c1)N(c1ncc(-c3cccc(O)n3)cn1)CC21CC1` [Compound 280, N-(2-Hydroxy-ethyl)-1-[5-(6-hydroxy-pyridin-2-yl)-pyrimidin-2-yl]-N-methyl-spiro[1,2-dihydro-indole-3,1′-cyclopropane]-6-carboxylic acid amide] gave an IC50 below 0.1 µM.
Under `CN(CCO)C(=O)c1ccc2c(c1)N(c1ncc(-c3ccnc(F)c3)cn1)CC21CC1` [Compound 231, 1-[5-(2-Fluoro-pyridin-4-yl)-pyrimidin-2-yl]-N-(2-hydroxy-ethyl)-N-methyl-spiro[1,2-dihydro-indole-3,1′-cyclopropane]-6-carboxylic acid amide] stands below 0.1 µM; under `CC(=O)Nc1ccnc(-c2cnc(N3CC4(CC4)c4ccc(C(=O)N(C)CCO)cc43)nc2)c1` [Compound 252, 1-[5-(4-Acetylamino-pyridin-2-yl)-pyrimidin-2-yl]-N-(2-hydroxy-ethyl)-N-methyl-spiro[1,2-dihydro-indole-3,1′-cyclopropane]-6-carboxylic acid amide], below 0.1 µM.
Then `C[C@@H](O)CN1CCN(C(=O)c2ccc3c(c2)N(c2ncc(-c4ccccc4F)cn2)CC32CC2)CC1` [Compound 239, [1-[5-(2-Fluorophenyl)-pyrimidin-2-yl]-spiro[1,2-dihydro-indole-3,1′-cyclopropane]-6-yl]-[4-[(2R)-2-hydroxy-propyl]-piperazin-1-yl]-methanone], with below 0.1 µM; and `CN(CCO)C(=O)c1ccc2c(c1)N(c1ncc(-c3nc(CC#N)cs3)cn1)CC21CC1` [Compound 350, 1-[5-[4-(Cyano-methyl)-thiazol-2-yl]-pyrimidin-2-yl]-N-(2-hydroxy-ethyl)-N-methyl-spiro[1,2-dihydro-indole-3,1′-cyclopropane]-6-carboxylic acid amide], with below 0.1 µM; and `CN(CCO)C(=O)c1ccc2c(c1)N(c1ncc(-c3cc(C(C)(C)O)ccc3F)cn1)CC21CC1` [Compound 309, 1-[5-[2-Fluoro-5-(1-hydroxy-1-methyl-ethyl)-phenyl]-pyrimidin-2-yl]-N-(2-hydroxy-ethyl)-N-methyl-spiro[1,2-dihydro-indole-3,1′-cyclopropane]-6-carboxylic acid amide], with below 0.1 µM.
Then `O=C(O)C1CCCN(C(=O)c2ccc3c(c2)N(c2ncc(-c4ccccc4F)cn2)CC32CC2)C1` (stereo not drawn) [Compound 238, 1-[1-[5-(2-Fluorophenyl)-pyrimidin-2-yl]-spiro[1,2-dihydro-indole-3,1′-cyclopropane]-6-carbonyl]-piperidine-3-carboxylic acid], with below 0.1 µM; and `CCc1ccnc(-c2cnc(N3CC4(CC4)c4ccc(C(=O)N(C)C)cc43)nc2)c1` [Compound 270, 1-[5-(4-Ethyl-pyridin-2-yl)-pyrimidin-2-yl]-N,N-dimethyl-spiro[1,2-dihydro-indole-3,1′-cyclopropane]-6-carboxylic acid amide], with below 0.1 µM; and `CN(CCO)C(=O)c1ccc2c(c1)N(c1ncc(-c3nc(CCO)cs3)cn1)CC21CC1` [Compound 339, N-(2-Hydroxy-ethyl)-1-[5-[4-(2-hydroxy-ethyl)-thiaozl-2-yl]-pyrimidin-2-yl]-N-methyl-spiro[1,2-dihydro-indole-3,1′-cyclopropane]-6-carboxylic acid amide], with below 0.1 µM.
Take `CC(O)c1ccc(F)c(-c2cnc(N3CC4(CC4)c4ccc(C(=O)N(C)CCO)cc43)nc2)c1` (stereo not drawn) [Compound 312, 1-[5-[2-Fluoro-5-(1-hydroxy-ethyl)-phenyl]-pyrimidin-2-yl]-N-(2-hydroxy-ethyl)-N-methyl-spiro[1,2-dihydro-indole-3,1′-cyclopropane]-6-carboxylic acid amide]: the 50% inhibitory concentration (IC50) was below 0.1 µM.
Then `CCNc1ccnc(-c2cnc(N3CC4(CC4)c4ccc(C(=O)N(C)CCO)cc43)nc2)c1` [Compound 316, 1-[5-(4-Ethylamino-pyridin-2-yl)-pyrimidin-2-yl]-N-(2-hydroxy-ethyl)-N-methyl-spiro[1,2-dihydro-indole-3,1′-cyclopropane]-6-carboxylic acid amide], with below 0.1 µM.

The IC50 is the concentration needed to halve the response being measured. Low values mean higher potency, high ones lower potency.
